We go through seven compounds from patent US6566403B1 (priority 1997, dated 2003).

For one assay, the system named is Pythium ultimum. Briefly: Fungitoxicity assay against Pythium ultimum (mycelial dry weight, liquid broth). The format is cell-based. Conditions: for Relative Effectiveness against Pythium ultimum: EC50 of racemic mixture divided by EC50 of the enantiomer, growth 48 hours at 25° C. As to the method:
(§1) A series of dilutions of each test compound was prepared in dimethyl sulfoxide, and 0.1 ml of each dilution was added to 19.9 ml of a liquid asparagine-sucrose broth (Erwin, D. C. and Katznelson, K., 1971, Can. J. Microbiol. 7, 15) in 9 cm diameter petri dishes to give the desired concentrations of test compound in the medium. Each plate was inoculated with a mycelial plug, 7 mm in diameter, taken from the growing edge of a culture of Pythium ultimum grown on potato dextrose agar. Two replicate plates were used for each treatment. The increase in mycelial dry weight was determined after growth for 48 hours at 25° C. with shaking on a gyrotary shaker at 60 rpm. Pythium EC50 values were calculated from dose response curves. As used herein, the terminology “EC50” means the concentration of test compound required to inhibit growth by 50% as compared to a control lacking the test compound.
(§2) In order to compare the activity of individual isomers with that of the corresponding racemic mixture, the relative effectiveness of each compound was calculated. As used herein, relative effectiveness means the EC50 value for a racemic mixture of the particular compound divided by the EC50 value for one enantiomer. The relative effectiveness of the racemic mixture itself is 1.0.

The subject of assay [1] is Botrytis cinerea. Briefly: Fungitoxicity assay against Botrytis cinerea (colony diameter on agar). Particulars: EC50 of racemic mixture divided by EC50 of the enantiomer; 48 hours at 25° C. It counts as cell-based. As to the method:
A series of dilutions of each test compound was prepared in dimethyl sulfoxide and 125 microliters […] of each dilution was added to 25 ml of molten potato dextrose agar to give the desired concentrations of test compound. The mixtures were poured immediately into 9 cm diameter petri dishes. Each plate was inoculated with a 7 mm diameter mycelial plug taken from the growing edge of a 5 day old culture of B. cinerea grown on potato dextrose agar.
as §2

The next assay concerns Phytophthora capsici. Description: Fungitoxicity assay against Phytophthora capsici (mycelial dry weight, liquid broth). Conditions: EC50 of racemic mixture divided by EC50 of the enantiomer; growth 96 h. It counts as cell-based. As to the method:
as §1
The procedure described above for Pythium ultimum was used except that the mycelial plugs used for inoculation were taken from the growing edge of cultures of Phytophthora capsici grown on V-8 juice agar, pH 7.0, containing 200 ml V-8 juice, 4 g CaCO3, and 20 g agar per liter, and the increase in mycelial dry weight was determined after growth for 96 h.
as §2

In assay [2] the test system is Phytophthora infestans. The format is in vivo. Particulars: tomato seedlings, treated before inoculation, 6 days after inoculation.
The test system of assay [3] is Plasmopara viticola. Briefly: Grape Downy Mildew (GDM). The format is in vivo. Particulars: grape plants, treated before inoculation, scored after 7-8 days. As for the experimental part:
(§3) Cultures of Plasmopara viticola were maintained on grape seedlings derived from tissue culture. Leaves with sporulating mildew were rinsed in water to obtain the desired concentration of spores. A DeVilbiss atomizer was used to apply a suspension of spores to fungicide-treated lower leaves of the grape plants. The plants were kept in a humidity cabinet at 100% relative humidity for 24 hours and then placed in a controlled temperature chamber at 25° C. for 7-8 days before scoring. Disease evaluations were recorded as percent disease control.

For assay [4], the system named is Phytophthora infestans. It counts as in vivo. Conditions: tomato, compound applied two days after inoculation.
The test system of assay [5] is Plasmopara viticola. Description: Grape Downy Mildew-Curative (GDC). It counts as in vivo. Particulars: compound applied two days after inoculation. As for the experimental part: as §3
The curative properties of the test compounds were evaluated using the same procedure as that set forth above in the section entitled “GRAPE DOWNY MILDEW”, except that the test compound was applied to the plants two days after inoculation with the pathogen.

Assay [6] concerns Botrytis cinerea. Description: Gray Mold on Tomato-Curative (BOC). It counts as in vivo. Conditions: tomato plants, compound applied 2 days after inoculation. As for the experimental part: Botrytis cinerea cultures were maintained on potato dextrose agar. A dextrose solution was used to wash spores from sporulating cultures. A DeVilbiss atomizer was used to apply the resulting spore suspension to tomato plants. The plants were placed in a humidity cabinet at 100% relative humidity, and the test compound was applied to the plants after 2 days. The plants were returned to the humidity cabinet for a further 3-5 days before scoring. Disease evaluations were recorded as percent disease control.

Where two headings read alike, the source gives them in different places.

As to `CC[C@](C)(NC(=O)c1cc(Cl)cc(Cl)c1)C(=O)CCl` [Compound 2, S enantiomer], in the assay with Pythium ultimum, the “Relative Effectiveness against Pythium ultimum” value is given as 2.68. Further, the “Relative Effectiveness against Botrytis cinerea” value in the assay with Botrytis cinerea [1] was 1.85.
On to `CCC(C)(NC(=O)c1cc(Cl)c(C)c(Cl)c1)C(=O)CCl` (racemic) [Compound 1, racemate], for which the “Relative Effectiveness against Pythium ultimum” value in the assay on Pythium ultimum worked out at 1.00. Also, the “Relative Effectiveness against Phytophthora capsici” value in the assay on Phytophthora capsici amounted to 1.00. The “Relative Effectiveness against Botrytis cinerea” value with Botrytis cinerea [1] is 1.00. Further, the “TLB percent disease control” value is listed as 85% with Phytophthora infestans [2] (19 ppm), 100% with Phytophthora infestans [2] (75 ppm) and 95% in the assay on Phytophthora infestans [2] (300 ppm). The “GDM percent disease control” value is 99% with Plasmopara viticola [3] (19 ppm), 100% in the assay on Plasmopara viticola [3] (75 ppm) and 100% with Plasmopara viticola [3] (300 ppm). Further, the “TLC percent disease control” value with Phytophthora infestans [4] (19 ppm) was determined as 80%; in the assay with Phytophthora infestans [4] (75 ppm), 90%; in the assay on Phytophthora infestans [4] (300 ppm), 95%. The “GDC percent disease control” value in the assay with Plasmopara viticola [5] (19 ppm) is reported as 50%; in the assay on Plasmopara viticola [5] (75 ppm) it was 50%; in the assay on Plasmopara viticola [5] (300 ppm), 90%. The results for the “BOC percent disease control” value in the assay with Botrytis cinerea [6] (19 ppm), in the assay on Botrytis cinerea [6] (75 ppm) and with Botrytis cinerea [6] (300 ppm) were 50%, 75% and 90%, respectively.
Take `CC[C@](C)(NC(=O)c1cc(Cl)c(C)c(Cl)c1)C(=O)CCl` [Compound 1, S enantiomer, (S)-N-(3-chloro-1-ethyl-1-methyl-2-oxopropyl)-3,5-dichloro-4-methylbenzamide]: the “Relative Effectiveness against Pythium ultimum” value in the assay on Pythium ultimum turned out to be 2.18. For the same compound, the “Relative Effectiveness against Phytophthora capsici” value with Phytophthora capsici came to 2.13. Moreover, the “Relative Effectiveness against Botrytis cinerea” value with Botrytis cinerea [1] worked out at 2.03. Moreover, the figures for the “TLB percent disease control” value in the assay with Phytophthora infestans [2] (19 ppm), in the assay on Phytophthora infestans [2] (75 ppm) and with Phytophthora infestans [2] (300 ppm) were 90%, 100% and 100%, respectively. Moreover, the results for the “GDM percent disease control” value in the assay on Plasmopara viticola [3] (19 ppm), with Plasmopara viticola [3] (75 ppm) and with Plasmopara viticola [3] (300 ppm) were 99%, 100% and 100%, respectively. Besides, the “TLC percent disease control” value in the assay with Phytophthora infestans [4] (19 ppm) is 90%; in the assay with Phytophthora infestans [4] (75 ppm), 99%; in the assay on Phytophthora infestans [4] (300 ppm) it was 95%. Besides, the results for the “GDC percent disease control” value in the assay with Plasmopara viticola [5] (19 ppm), in the assay on Plasmopara viticola [5] (75 ppm) and in the assay with Plasmopara viticola [5] (300 ppm) were 75%, 90% and 99%, respectively. In addition, the “BOC percent disease control” value in the assay with Botrytis cinerea [6] (19 ppm) is given as 75%; in the assay on Botrytis cinerea [6] (75 ppm) it was 90%; in the assay on Botrytis cinerea [6] (300 ppm) it was 95%.
`CCC(C)(NC(=O)c1cc(Cl)c(C)c(Cl)c1)C(=O)CCl` (stereo not drawn) [Compound 1]: the “Relative Effectiveness (expected) against Pythium ultimum” value with Pythium ultimum (50 % S in the Mixture of racemate and S enantiomer) is on record as 1.000; in the assay with Pythium ultimum (60 % S in the Mixture of racemate and S enantiomer), 1.236; in the assay with Pythium ultimum (70 % S in the Mixture of racemate and S enantiomer), 1.472; in the assay on Pythium ultimum (80 % S in the Mixture of racemate and S enantiomer), 1.708; with Pythium ultimum (90 % S in the Mixture of racemate and S enantiomer), 1.944; in the assay on Pythium ultimum (100 % S in the Mixture of racemate and S enantiomer) it was 2.180.
Take `CCC(C)(NC(=O)c1cc(Cl)cc(Cl)c1)C(=O)CCl` (racemic) [Compound 2, racemate]: the “Relative Effectiveness against Pythium ultimum” value in the assay with Pythium ultimum was found to be 1.00. Moreover, the “Relative Effectiveness against Botrytis cinerea” value in the assay on Botrytis cinerea [1] is given as 1.00.
As to `CC[C@@](C)(NC(=O)c1cc(Cl)cc(Cl)c1)C(=O)CCl` [Compound 2, R enantiomer], the “Relative Effectiveness against Pythium ultimum” value with Pythium ultimum stood at 0.055. In the assay on Botrytis cinerea [1], the “Relative Effectiveness against Botrytis cinerea” value was 0.17.
For the compound `CC[C@@](C)(NC(=O)c1cc(Cl)c(C)c(Cl)c1)C(=O)CCl` [Compound 1, R enantiomer, (R)-N-(3-chloro-1-ethyl-1-methyl-2-oxopropyl)-3,5-dichloro-4-methylbenzamide], the “Relative Effectiveness against Pythium ultimum” value in the assay with Pythium ultimum is 0.037. Further, the “Relative Effectiveness against Phytophthora capsici” value in the assay on Phytophthora capsici is listed as 0.0072. Further, the “Relative Effectiveness against Botrytis cinerea” value with Botrytis cinerea [1] is on record as less than 0.076. For the same compound, the “TLB percent disease control” value in the assay on Phytophthora infestans [2] (19 ppm) was determined as 25%; in the assay with Phytophthora infestans [2] (75 ppm) it was 50%; in the assay on Phytophthora infestans [2] (300 ppm) it was 75%. The “GDM percent disease control” value with Plasmopara viticola [3] (19 ppm), in the assay with Plasmopara viticola [3] (75 ppm) and with Plasmopara viticola [3] (300 ppm) was 0% throughout. Moreover, the “TLC percent disease control” value in the assay on Phytophthora infestans [4] (19 ppm), with Phytophthora infestans [4] (75 ppm) and in the assay with Phytophthora infestans [4] (300 ppm) was 0% throughout. Moreover, the “GDC percent disease control” value in the assay with Plasmopara viticola [5] (19 ppm), with Plasmopara viticola [5] (75 ppm) and in the assay on Plasmopara viticola [5] (300 ppm) was 0% throughout. In addition, the “BOC percent disease control” value in the assay on Botrytis cinerea [6] (19 ppm), with Botrytis cinerea [6] (75 ppm) and in the assay on Botrytis cinerea [6] (300 ppm) was 0% each time.
